Values quoted from earlier work, collected in US6790445B1, “Preservatives for vaccines” (Merck & Co., Inc., priority 1997, dated 2004).

Legend:
mice = conditions: intraperitoneally
population = conditions: in vivo
[1] = in vivo
[2] = at 4° C.

In the case of `OCCOc1ccccc1` [2-Phenoxyethanol, 2-phenoxyethanol], the “acute oral LD50” value (rats) is given as 1.26 to 2.33 mL/kg and the “acute dermal LD50” value (rabbits) is given as 2.0 mL/kg.
For `COC(=O)c1ccc(O)cc1` [Methyl Paraben, methyl paraben], the LD50 (mice) is listed as 1000 mg/kg.
In the case of `C[CH2][Hg][S]c1ccccc1C(=O)[O-].[Na+]` [Thimerosal], the “allergic reaction, share of the population” value (population) is listed as “about sixteen”.
For `OCc1ccccc1` [Benzyl Alcohol, benzyl alcohol], the probable lethal dose [1] is given as 500 to 5000 mg/kg.
For `N[C@@H](Cc1c[nH]cn1)C(=O)O` [histidine, L-histidine], the pKa [2] is given as 7.
